# Reference: the supplement of paper PMC10307832
# Assays:
# Test in all cases: relative viability (nuclei count vs DMSO), 5 days (fraction); higher = more cells survive
# SK-MES-1 = test system: SK-MES-1
# Method in brief: (§1)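 Lung cancer cell lines in 1536-well plates were dosed by pin tool the day after seeding, either with one drug alone or with a fixed anchor-drug dose plus five library-drug doses (not always all listed) in √10 steps. After 5 days, cells were fixed and their nuclei stained in one step (final 0.05% Triton X-100, 1% formaldehyde, 1 ug/ml Hoechst), then counted on 4× images. Relative viability is the nuclei count in treated wells divided by that in vehicle wells. Values are medians of duplicate plates.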
# NCI-H1651 = test system: NCI-H1651
# Method in brief: as §1
# NCI-H460 = test system: NCI-H460
# Method in brief: as §1
# LCLC-103H = test system: LCLC-103H
# Method in brief: as §1
# NCI-H1355 = test system: NCI-H1355
# Method in brief: as §1
# PC-14 = test system: PC-14
# Method in brief: as §1
# NCI-H322M = test system: NCI-H322M
# Method in brief: as §1
# NCI-H520 = test system: NCI-H520
# Method in brief: as §1
# NCI-H727 = test system: NCI-H727
# Method in brief: as §1
# RERF-LC-KJ = test system: RERF-LC-KJ
# Method in brief: as §1
# NCI-H596 = test system: NCI-H596
# Method in brief: as §1
# NCI-H1915 = test system: NCI-H1915
# Method in brief: as §1
# NCI-H661 = test system: NCI-H661
# Method in brief: as §1
# LXF-289 = test system: LXF-289
# Method in brief: as §1
# SW 900 = test system: SW 900
# Method in brief: as §1
# NCI-H1563 = test system: NCI-H1563
# Method in brief: as §1
# NCI-H3122 = test system: NCI-H3122
# Method in brief: as §1
# NCI-H1755 = test system: NCI-H1755
# Method in brief: as §1
# NCI-H2347 = test system: NCI-H2347
# Method in brief: as §1
# NCI-H441 = test system: NCI-H441
# Method in brief: as §1
structure (smiles),measurement,setting,value
CC(=O)O[C@@]12CO[C@@H]1C[C@H](O)[C@@]1(C)C(=O)[C@H](O)C3=C(C)[C@@H](OC(=O)[C@H](O)[C@@H](NC(=O)OC(C)(C)C)c4ccccc4)C[C@@](O)([C@@H](OC(=O)c4ccccc4)[C@H]21)C3(C)C [Docetaxel] + COc1cc2c(Oc3ccc(NC(=O)C4(C(=O)Nc5ccc(F)cc5)CC4)cc3F)ccnc2cc1OCCCN1CCOCC1 [Foretinib] (partner 0.25 µM),relative viability,SK-MES-1; first compound 0.0002 µM,0.84
same,relative viability,SK-MES-1; first compound 0.000632 µM,0.923
same,relative viability,SK-MES-1; first compound 0.002 µM,0.508
same,relative viability,SK-MES-1; first compound 0.006325 µM,0.368
same,relative viability,SK-MES-1; first compound 0.02 µM,0.168
same,relative viability,NCI-H1651; first compound 0.0002 µM,0.795
same,relative viability,NCI-H1651; first compound 0.000632 µM,0.789
same,relative viability,NCI-H1651; first compound 0.002 µM,0.238
same,relative viability,NCI-H1651; first compound 0.006325 µM,0.128
same,relative viability,NCI-H1651; first compound 0.02 µM,0.107
same,relative viability,NCI-H460; first compound 0.0002 µM,0.952
same,relative viability,NCI-H460; first compound 0.000632 µM,0.933
same,relative viability,NCI-H460; first compound 0.002 µM,0.184
same,relative viability,NCI-H460; first compound 0.006325 µM,0.0294
same,relative viability,NCI-H460; first compound 0.02 µM,0.022
same,relative viability,LCLC-103H; first compound 0.0002 µM,0.674
same,relative viability,LCLC-103H; first compound 0.000632 µM,0.61
same,relative viability,LCLC-103H; first compound 0.002 µM,0.485
same,relative viability,LCLC-103H; first compound 0.006325 µM,0.339
same,relative viability,LCLC-103H; first compound 0.02 µM,0.272
same,relative viability,NCI-H1355; first compound 0.0002 µM,0.958
same,relative viability,NCI-H1355; first compound 0.000632 µM,0.886
same,relative viability,NCI-H1355; first compound 0.002 µM,0.625
same,relative viability,NCI-H1355; first compound 0.006325 µM,0.276
same,relative viability,NCI-H1355; first compound 0.02 µM,0.243
same,relative viability,PC-14; first compound 0.0002 µM,0.886
same,relative viability,PC-14; first compound 0.000632 µM,1.03
same,relative viability,PC-14; first compound 0.002 µM,0.576
same,relative viability,PC-14; first compound 0.006325 µM,0.117
same,relative viability,PC-14; first compound 0.02 µM,0.0977
same,relative viability,NCI-H322M; first compound 0.0002 µM,0.928
same,relative viability,NCI-H322M; first compound 0.000632 µM,0.949
same,relative viability,NCI-H322M; first compound 0.002 µM,0.956
same,relative viability,NCI-H322M; first compound 0.006325 µM,0.702
same,relative viability,NCI-H322M; first compound 0.02 µM,0.463
same,relative viability,NCI-H520; first compound 0.0002 µM,0.708
same,relative viability,NCI-H520; first compound 0.000632 µM,0.808
same,relative viability,NCI-H520; first compound 0.002 µM,0.341
same,relative viability,NCI-H520; first compound 0.006325 µM,0.218
same,relative viability,NCI-H520; first compound 0.02 µM,0.173
same,relative viability,NCI-H727; first compound 0.0002 µM,0.834
same,relative viability,NCI-H727; first compound 0.000632 µM,0.693
same,relative viability,NCI-H727; first compound 0.002 µM,0.788
same,relative viability,NCI-H727; first compound 0.006325 µM,0.507
same,relative viability,NCI-H727; first compound 0.02 µM,0.346
same,relative viability,RERF-LC-KJ; first compound 0.0002 µM,0.882
same,relative viability,RERF-LC-KJ; first compound 0.000632 µM,0.898
same,relative viability,RERF-LC-KJ; first compound 0.002 µM,0.402
same,relative viability,RERF-LC-KJ; first compound 0.006325 µM,0.2
same,relative viability,RERF-LC-KJ; first compound 0.02 µM,0.203
same,relative viability,NCI-H596; first compound 0.0002 µM,0.901
same,relative viability,NCI-H596; first compound 0.000632 µM,0.51
same,relative viability,NCI-H596; first compound 0.002 µM,0.419
same,relative viability,NCI-H596; first compound 0.006325 µM,0.365
same,relative viability,NCI-H596; first compound 0.02 µM,0.217
same,relative viability,NCI-H1915; first compound 0.0002 µM,1.15
same,relative viability,NCI-H1915; first compound 0.000632 µM,1.05
same,relative viability,NCI-H1915; first compound 0.002 µM,0.736
same,relative viability,NCI-H1915; first compound 0.006325 µM,0.262
same,relative viability,NCI-H1915; first compound 0.02 µM,0.179
same,relative viability,NCI-H661; first compound 0.0002 µM,0.989
same,relative viability,NCI-H661; first compound 0.000632 µM,1.02
same,relative viability,NCI-H661; first compound 0.002 µM,0.982
same,relative viability,NCI-H661; first compound 0.006325 µM,0.509
same,relative viability,NCI-H661; first compound 0.02 µM,0.496
same,relative viability,LXF-289; first compound 0.0002 µM,0.977
same,relative viability,LXF-289; first compound 0.000632 µM,0.924
same,relative viability,LXF-289; first compound 0.002 µM,0.207
same,relative viability,LXF-289; first compound 0.006325 µM,0.147
same,relative viability,LXF-289; first compound 0.02 µM,0.0982
same,relative viability,SW 900; first compound 0.0002 µM,0.816
same,relative viability,SW 900; first compound 0.000632 µM,0.407
same,relative viability,SW 900; first compound 0.002 µM,0.249
same,relative viability,SW 900; first compound 0.006325 µM,0.247
same,relative viability,SW 900; first compound 0.02 µM,0.175
same,relative viability,NCI-H1563; first compound 0.0002 µM,0.988
same,relative viability,NCI-H1563; first compound 0.000632 µM,0.862
same,relative viability,NCI-H1563; first compound 0.002 µM,0.966
same,relative viability,NCI-H1563; first compound 0.006325 µM,0.922
same,relative viability,NCI-H1563; first compound 0.02 µM,0.628
same,relative viability,NCI-H3122; first compound 0.0002 µM,0.993
same,relative viability,NCI-H3122; first compound 0.000632 µM,0.901
same,relative viability,NCI-H3122; first compound 0.002 µM,0.761
same,relative viability,NCI-H3122; first compound 0.006325 µM,0.16
same,relative viability,NCI-H3122; first compound 0.02 µM,0.106
same,relative viability,NCI-H1755; first compound 0.0002 µM,0.901
same,relative viability,NCI-H1755; first compound 0.000632 µM,0.88
same,relative viability,NCI-H1755; first compound 0.002 µM,0.564
same,relative viability,NCI-H1755; first compound 0.006325 µM,0.351
same,relative viability,NCI-H1755; first compound 0.02 µM,0.373
same,relative viability,NCI-H2347; first compound 0.0002 µM,0.806
same,relative viability,NCI-H2347; first compound 0.000632 µM,0.815
same,relative viability,NCI-H2347; first compound 0.002 µM,0.541
same,relative viability,NCI-H2347; first compound 0.006325 µM,0.31
same,relative viability,NCI-H2347; first compound 0.02 µM,0.368
same,relative viability,NCI-H441; first compound 0.0002 µM,1.12
same,relative viability,NCI-H441; first compound 0.000632 µM,0.725
same,relative viability,NCI-H441; first compound 0.002 µM,0.538
same,relative viability,NCI-H441; first compound 0.006325 µM,0.87
